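Cultured in 96-well plates, cells were exposed to test compound for 48 hours across five concentrations. GI50 = concentration required for 50% inhibition of growth.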 Activity calls are given as the source filed them. Cut-off read from the data, not from the text of the source: active = GI50 up to about 1.1 µM and inactive = higher.
Columns and labels:
Assay in all cases: NCI anticancer screen, dose series, 48 h
[1] = test system: SK-MEL-5
[2] = test system: CCRF-CEM
[3] = test system: UACC-257
[4] = test system: OVCAR-5
[5] = test system: HT-29
[6] = test system: U-251
[7] = test system: ACHN
[8] = test system: MDA-N
[9] = test system: RXF 393
[10] = test system: UACC-62
[11] = test system: BT-549
[12] = test system: TK-10
[13] = test system: NCI/ADR-RES
[14] = test system: MDA-MB-435
[15] = test system: SN12C
[16] = test system: EKVX
[17] = test system: K562
[18] = test system: HOP-92
[19] = test system: SW-620
[20] = test system: Hs-578T

| SMILES | GI50 [1] | GI50 [2] | GI50 [3] | GI50 [4] | GI50 [5] | GI50 [6] | GI50 [7] | GI50 [8] | GI50 [9] | GI50 [10] | GI50 [11] | GI50 [12] | GI50 [13] | GI50 [14] | GI50 [15] | GI50 [16] | GI50 [17] | GI50 [18] | GI50 [19] | GI50 [20] |
| --- | --- | --- | --- | --- | --- | --- | --- | --- | --- | --- | --- | --- | --- | --- | --- | --- | --- | --- | --- | --- |
| Cc1cc(C)n2c(nc3ccccc32)c1C#N | 55.7 µM (inactive) | > 100 µM (inactive) | > 100 µM (inactive) | > 100 µM (inactive) | > 100 µM (inactive) | > 100 µM (inactive) | > 100 µM (inactive) | > 100 µM (inactive) | > 100 µM (inactive) | > 100 µM (inactive) | > 100 µM (inactive) | > 100 µM (inactive) | > 100 µM (inactive) | > 100 µM (inactive) | > 100 µM (inactive) | > 100 µM (inactive) | > 100 µM (inactive) | 22.4 µM (inactive) | > 100 µM (inactive) |  |
| COc1cc(/C=C/C(=O)c2ccc(NS(=O)(=O)c3cc([N+](=O)[O-])ccc3C)cc2)cc(OC)c1OC | 4.18 µM (inactive) | 2.2 µM (inactive) | 7.53 µM (inactive) | 4.37 µM (inactive) | 4.38 µM (inactive) | 3.37 µM (inactive) | 4.38 µM (inactive) | 3.62 µM (inactive) | 2.81 µM (inactive) |  | 4.27 µM (inactive) | 3.96 µM (inactive) | 8.41 µM (inactive) | 3.71 µM (inactive) | 1.87 µM (inactive) | 5.36 µM (inactive) | 2.88 µM (inactive) | 2.98 µM (inactive) | 4.49 µM (inactive) |  |
| CCOC(=O)c1cc(I)c(-c2cc(C)no2)n1C | 33.1 µM (inactive) | 27.9 µM (inactive) | 71.6 µM (inactive) | 93.3 µM (inactive) | 74.1 µM (inactive) | 60.5 µM (inactive) | 48.3 µM (inactive) | 43.9 µM (inactive) | 15.4 µM (inactive) | 59 µM (inactive) | 64.7 µM (inactive) | > 100 µM (inactive) | 36.2 µM (inactive) | 34.8 µM (inactive) | 21.5 µM (inactive) | 27 µM (inactive) | 26.8 µM (inactive) | 36.4 µM (inactive) | 60.7 µM (inactive) |  |
| COc1ccc(C[C@@H](C(=O)O[C@H](C)[C@H](NC(=O)[C@@H](CC(C)C)N(C)C(=O)C2CCCN2C(=O)[C@H](C)O)C(=O)N2CCCCNC(=O)[C@@H](C)C(=O)[C@H](C(C)C)OC(=O)C[C@H](O)[C@H]2CC(C)C)N(C)C(C)=O)cc1 (some centres not stated) | 3.95 µM (inactive) | 8.61 µM (inactive) | 17.5 µM (inactive) | 7.89 µM (inactive) | 3.27 µM (inactive) | 3.1 µM (inactive) | 12.6 µM (inactive) |  | 5.2 µM (inactive) | 3.71 µM (inactive) | 17.5 µM (inactive) | 38.5 µM (inactive) | 21.3 µM (inactive) | 16.7 µM (inactive) | 15.2 µM (inactive) | 6.78 µM (inactive) | 8.05 µM (inactive) | 15 µM (inactive) | 5.85 µM (inactive) | 4.11 µM (inactive) |
| Cc1c(CCCl)c(Cl)n2c(nc3ccccc32)c1C#N | 0.891 µM (active) | 0.045 µM (active) | 1.44 µM (inactive) | 1.63 µM (inactive) | 1.42 µM (inactive) | 0.986 µM (active) | 0.836 µM (active) | 0.826 µM (active) | 0.787 µM (active) | 1.02 µM (active) | 2.21 µM (inactive) | 1.61 µM (inactive) |  | 0.796 µM (active) | 0.423 µM (active) | 3.21 µM (inactive) | 0.321 µM (active) | 1.15 µM (inactive) | 0.161 µM (active) |  |
| CCOC(=O)C1=C(C)N(Cc2ccccc2)C2(O)C(OC)CC(=O)C3C(=O)N(c4ccccc4)C(=O)C132 (configuration not stated) | 10.3 µM (inactive) | 3.91 µM (inactive) | 15.5 µM (inactive) | 13.8 µM (inactive) | 4.9 µM (inactive) | 6.53 µM (inactive) | 10.4 µM (inactive) |  | 5.69 µM (inactive) | 5.66 µM (inactive) | 4.97 µM (inactive) | 22.4 µM (inactive) | 13.8 µM (inactive) | 5.05 µM (inactive) | 10.6 µM (inactive) | 23.7 µM (inactive) | 4.43 µM (inactive) | 14.2 µM (inactive) | 4.93 µM (inactive) | 83.4 µM (inactive) |
